Experimental data: US8299056B2 (Signal Pharmaceuticals, LLC, priority 2008, dated 2012)
Read-outs that look alike come from different tables or passages of the source.

Biological target: T1, Syk (Homo sapiens, UniProt P43405)
T1 construct: purchased Carna Biosciences
Assay: Syk HTRF assay
Type: biochemical
Method in brief: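 HTRF kinase assay in HEPES pH 7.6 buffer with MgCl2, DTT and Triton X100; start mix of 87.5 μM ATP and 80 nM biotinylated peptide, 1 h at room temperature. EDTA stop, then Eu-anti-phosphotyrosine/streptavidin-DyLight 647 detection, read as 665/615 nm emission ratio.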

[1] = read-out: Activity Level (Syk HTRF assay IC50)
[2] = activity levels A-D, read-out: Activity Level (IC50 in the Syk HTRF assay)
[3] = IC50 activity level, read-out: Activity Level

Structure (SMILES)	IC50 [2] [nM]	IC50 [3] [nM]	further results
CNC(=O)c1ccc(Nc2nc3cccc(-c4ccc(C(=O)O)cc4)n3n2)cc1 [compound 29, 4-(2-(4-(methylcarbamoyl)phenylamino)-[1,2,4]triazolo[1,5-a]pyridin-5-yl)benzoic acid]	–	–	IC50 [1]: 1000 to 10000 nM
FC(F)(F)c1ccc(Nc2nc3cccc(CC4CCNCC4)n3n2)cc1 [Example 395, 5-(piperidin-4-ylmethyl)-N-(4-(trifluoromethyl)phenyl)-[1,2,4]triazolo[1,5-a]pyridin-2-amine]	0.005 to 250	–	–
Cc1n[nH]c2cc(Nc3nc4cccc(NC5CCOCC5)n4n3)ccc12 [Example 209, N^2-(3-methyl-1H-indazol-6-yl)-N^5-(tetrahydro-2H-pyran-4-yl)-[1,2,4]triazolo[1,5-a]pyridin-2,5-diamine]	0.005 to 250	–	–
O=C1CN(Cc2cccc3nc(Nc4ccc5c(C(F)(F)F)n[nH]c5c4)nn23)CCN1 [Example 155, 4-((2-(3-(trifluoromethyl)-1H-indazol-6-ylamino)-[1,2,4]triazolo[1,5-a]pyridin-5-yl)methyl)piperazin-2-one]	–	–	IC50 [1]: 0.005 to 250 nM
OC1(Cc2cccc3nc(Nc4ccc(F)cc4)nn23)CCNCC1 [Example 430, 4-((2-(4-fluorophenylamino)-[1,2,4]triazolo[1,5-a]pyridin-5-yl)methyl)piperidin-4-ol]	–	1000 to 10000	–
N[C@H]1CC[C@H](Nc2cccc3nc(Nc4ccccc4)nn23)CC1 (stereo in doubt) [Example 518, trans-N^5-(4-aminocyclohexyl)-N^2-phenyl-[1,2,4]triazolo[1,5-a]pyridine-2,5-diamine]	–	500 to 1000	–
CNC(=O)c1ccc(Nc2nc3cccc(-c4cccc(C(N)=O)c4)n3n2)cc1 [compound 18, 4-(5-(3-carbamoylphenyl)-[1,2,4]triazolo[1,5-a]pyridin-2-ylamino)-N-methylbenzamide]	–	–	IC50 [1]: 500 to 1000 nM
c1ccc(Cc2cccc3nc(Nc4ccccc4)nn23)cc1 [Example 506, 5-benzyl-N-phenyl-[1,2,4]triazolo[1,5-a]pyridin-2-amine]	–	1000 to 10000	–
O[C@H]1CCC[C@H](Nc2cccc3nc(Nc4ccc(C(F)(F)F)cc4)nn23)C1 (single isomer, unassigned; enantiomer 2) [Example 226, trans-3-(2-(4-(trifluoromethyl)(phenylamino)-[1,2,4]triazolo[1,5-a]pyridin-5-ylamino)cyclohexanol (enantiomer 2)]	500 to 1000	–	–
O[C@@H]1CCC[C@@H](Nc2cccc3nc(Nc4ccc(C(F)(F)F)cc4)nn23)C1 (single isomer, unassigned; enantiomer 1) [Example 225, trans-3-(2-(4-(trifluoromethyl)phenylamino)-[1,2,4]triazolo[1,5-a]pyridin-5-ylamino)cyclohexanol (enantiomer 1)]	0.005 to 250	–	–
Cc1cc(Nc2nc3cccc(N[C@H]4CC[C@@H](O)CC4)n3n2)ccn1 [Example 367, cis-4-(2-(2-methylpyridin-4-ylamino)-[1,2,4]triazolo[1,5-a]pyridin-5-ylamino)cyclohexanol]	500 to 1000	–	–
CNC(=O)c1ccc(Nc2nc3cccc(-c4ccc5nc(C)[nH]c5c4)n3n2)cc1 [Example 244, N-methyl-4-(5-(2-methyl-1H-benzo[d]imidazol-6-yl)-[1,2,4]triazolo[1,5-a]pyridin-2-ylamino)benzamide]	0.005 to 250	–	–
O=C1NCc2ccc(Nc3nc4cccc(N[C@H]5CC[C@@H](O)CC5)n4n3)cc21 [Example 260, cis-6-(5-(4-hydroxycyclohexylamino)-[1,2,4]triazolo[1,5-a]pyridin-2-ylamino)isoindolin-2-one]	500 to 1000	–	–
CN(c1cccc2nc(Nc3ccc(C(F)(F)F)cc3)nn12)[C@H]1CC[C@@H](O)CC1 [Example 266, cis-4-(methyl(2-(4-(trifluoromethyl)phenylamino)-[1,2,4]triazolo[1,5-a]pyridin-5-yl)amino)cyclohexanol]	1000 to 10000	–	–
CC(CN)Cc1cccc2nc(Nc3ccccc3)nn12 (stereo in doubt) [Example 459, (S)-5-(3-amino-2-methylpropyl)-N-phenyl-[1,2,4]triazolo[1,5-a]pyridin-2-amine]	–	1000 to 10000	–
CC(O)c1nc2ccc(-c3cccc4nc(Nc5ccc(C(F)(F)F)cc5)nn34)cc2[nH]1 (stereo not drawn) [Example 402, 1-(6-(2-(4-(trifluoromethyl)phenylamino)-[1,2,4]triazolo[1,5-a]pyridin-5-yl)-1H-benzo[d]imidazol-2-yl)ethanol]	–	0.005 to 250	–
O[C@H]1CC[C@@H](Nc2cccc3nc(Nc4ccc(Cl)cc4)nn23)CC1 [Example 353, cis-4-(2-(4-chlorophenylamino)-[1,2,4]triazolo[1,5-a]pyridin-5-ylamino)cyclohexanol]	0.005 to 250	–	–
OC[C@H](Nc1cccc2nc(Nc3ccc(C(F)(F)F)cc3)nn12)c1ccccc1 [Example 412, (R)-2-phenyl-2-(2-(4-(trifluoromethyl)phenylamino)-[1,2,4]triazolo[1,5-a]pyridin-5-ylamino)ethanol]	–	1000 to 10000	–
O[C@@H]1CCC[C@@H]1Nc1cccc2nc(Nc3ccc(C(F)(F)F)cc3)nn12 [Example 406, (1R,2S)-2-(2-(4-(trifluoromethyl)phenylamino)-[1,2,4]triazolo[1,5-a]pyridin-5-ylamino)cyclopentanol]	–	500 to 1000	–
CC(C)(O)[C@H]1CC[C@H](Nc2cccc3nc(Nc4ccc(C(F)(F)F)cc4)nn23)CC1 (stereo in doubt) [Example 397, trans-2-(4-(2-(4-(trifluoromethyl)phenylamino)-[1,2,4]triazolo[1,5-a]pyridin-5-ylamino)cyclohexyl)propan-2-ol]	1000 to 10000	–	–
Cc1n[nH]c2cc(Nc3nc4cccc(NC[C@@H]5CC[C@H](O)C5)n4n3)ccc12 [Example 178, (1S,3R)-3-((2-(3-methyl-1H-indazol-6-ylamino)-[1,2,4]triazolo[1,5-a]pyridin-5-ylamino)methyl)cyclopentanol]	–	–	IC50 [1]: 0.005 to 250 nM
CN1C(=O)C(C)(C)c2ccc(Nc3nc4cccc(N[C@H]5CC[C@H](O)CC5)n4n3)cc21 (stereo in doubt) [Example 146, trans-6-(5-(4-hydroxycyclohexylamino)-[1,2,4]triazolo[1,5-a]pyridin-2-ylamino)-1,3,3-trimethylindolin-2-one]	–	–	IC50 [1]: 0.005 to 250 nM
CO[C@H]1CC[C@@H](N(C)c2cccc3nc(Nc4ccc(C(F)(F)F)cc4)nn23)CC1 [Example 265, cis-N^5-(4-methoxycyclohexyl)-N^5-methyl-N^2-(4-(trifluoromethyl)phenyl)-[1,2,4]triazolo[1,5-a]pyridine-2,5-diamine]	1000 to 10000	–	–
CN(CCO)c1cccc2nc(Nc3ccc4c(c3)NC(=O)C4(C)C)nn12 [Example 153, 6-(5-((2-hydroxyethyl)(methyl)amino)-[1,2,4]triazolo[1,5-a]pyridin-2-ylamino)-3,3-dimethylindolin-2-one]	–	–	IC50 [1]: 0.005 to 250 nM
O[C@H]1CCC[C@H](Nc2cccc3nc(Nc4ccc(C(F)(F)F)cc4)nn23)C1 (racemic) [Example 373, (±)trans-3-(2-(4-(trifluoromethyl)phenylamino)-[1,2,4]triazolo[1,5-a]pyridin-5-ylamino)cyclohexanol]	500 to 1000	–	–
Cn1ncc2ccc(Nc3nc4cccc(CC5CCOCC5)n4n3)cc21 [Example 160, N-(1-methyl-1H-indazol-6-yl)-5-((tetrahydro-2H-pyran-4-yl)methyl)-[1,2,4]triazolo[1,5-a]pyridin-2-amine]	–	–	IC50 [1]: 0.005 to 250 nM
Cc1cccc(Nc2nc3cccc(N[C@H]4CC[C@@H](O)CC4)n3n2)c1 [Example 350, cis-4-(2-(m-tolylamino)-[1,2,4]triazolo[1,5-a]pyridin-5-ylamino)cyclohexanol]	0.005 to 250	–	–

The next lines start with results.

IC50 [2] [nM]	IC50 [3] [nM]	Structure (SMILES)	further results
–	0.005 to 250	Nc1cc(-c2cccc3nc(Nc4ccccc4)nn23)ccn1 [Example 445, 5-(2-aminopyridin-4-yl)-N-phenyl-[1,2,4]triazolo[1,5-a]pyridin-2-amine]	–
–	1000 to 10000	Fc1ccc(Nc2nc3cccc(NC4CCCNC4)n3n2)cc1 (stereo in doubt) [Example 462, (R)-N^2-(4-fluorophenyl)-N^5-(piperidin-3-yl)-[1,2,4]triazolo[1,5-a]pyridin-2,5-diamine]	–
0.005 to 250	–	CC1C(=O)NCCN1Cc1cccc2nc(Nc3ccc(C(F)(F)F)cc3)nn12 (stereo in doubt) [Example 275, (S)-3-methyl-4-((2-(4-(trifluoromethyl)phenylamino)-[1,2,4]triazolo[1,5-a]pyridin-5-yl)methyl)piperazin-2-one]	–
–	1000 to 10000	c1ccc(Nc2nc3cccc(OC4CCCCC4)n3n2)cc1 [Example 510]	–
–	1000 to 10000	Oc1cc(Nc2cccc3nc(Nc4ccc(C(F)(F)F)cc4)nn23)ccn1 [Example 415, 4-(2-(4-(trifluoromethyl)phenylamino)-[1,2,4]triazolo[1,5-a]pyridin-5-ylamino)pyridin-2-ol]	–
1000 to 10000	–	CNC(=O)c1ccc(Nc2nc3cccc(N4CCC(O)CC4)n3n2)cc1 [Example 242, 4-(5-(4-hydroxypiperidin-1-yl)-[1,2,4]triazolo[1,5-a]pyridin-2-ylamino)-N-methylbenzamide]	–
–	0.005 to 250	Cn1c(=O)[nH]c2cc(Nc3nc4cccc(CC5CCOCC5)n4n3)ccc21 [Example 532, 1-methyl-5-(5-((tetrahydro-2H-pyran-4-yl)methyl)-[1,2,4]triazolo[1,5-a]pyridin-2-ylamino)-1H-benzo[d]imidazol-2(3H)-one]	–
0.005 to 250	–	O=C1NCCc2cc(Nc3nc4cccc(N[C@H]5CC[C@@H](O)CC5)n4n3)ccc21 [Example 203, cis-6-(5-(4-hydroxycyclohexylamino)-[1,2,4]triazolo[1,5-a]pyridin-2-ylamino)-3,4-dihydroisoquinolin-1(2H)-one]	–
500 to 1000	–	O[C@H]1CC[C@@H](Nc2cccc3nc(Nc4ccnc(OCCN5CCCC5)c4)nn23)CC1 [Example 293, cis-4-(2-(2-(2-(pyrrolidiun-1-yl)ethoxy)pyridin-4-ylamino)-[1,2,4]triazolo[1,5-a]pyridin-5-ylamino)cyclohexanol]	–
